What was measured:
[1] = tested on: Japanese encephalitis (14–14-2); test: microbe, parasite or virus in culture; assay type: cell-based; settings: Japanese encephalitis (14–14-2) [Huh-7]
[2] = Cytotoxicity, CellTiter-Glo, 72 h (OC43 protocol); settings: human, Huh-7 cells
[3] = Compound cytotoxicity by MTS dye reduction; settings: dog, MDCK cells
[4] = tested on: MDCK cells; test: Compound cytotoxicity by MTS dye reduction; settings: MDCK; listed as Influenza B (B/Brisbane/60/2008)
[5] = tested on: hepatitis B virus (HBV; AD38 strain); test: microbe, parasite or virus in culture; assay type: cell-based; settings: Hepatocyte, read-out: Antiviral activity EC50
[6] = tested on: Rhinovirus 14; test: CPE assay, H1 HeLa cells; assay type: cell-based; settings: Rhinovirus 14 [H1 HeLa]
[7] = tested on: all SUDV isolates tested; test: microbe, parasite or virus in culture; assay type: cell-based; settings: Sudan ebolavirus, HeLa, read-out: EC50 values against all SUDV isolates tested
[8] = tested on: Influenza A (A/California/07/2009); test: CPE assay, MDCK cells; assay type: cell-based; settings: Influenza A virus; Influenza A (A/California/07/2009) [MDCK]; read-out: Antiviral activity EC50
[9] = tested on: all MARV and Ravn virus (RAVV) isolates tested; test: microbe, parasite or virus in culture; assay type: cell-based, Marburg virus; settings: Filoviridae, HeLa, read-out: EC50 values against all MARV and RAVV isolates tested
[10] = tested on: Zika virus (Dakar); test: NanoLuc reporter virus infection assay, Huh-7; assay type: cell-based; settings: Zika virus (Dakar) [Huh-7]
[11] = tested on: Yellow fever virus (17D); test: microbe, parasite or virus in culture; assay type: cell-based
[12] = tested on: MARV Ci67; test: organism not typed; assay type: cell-based, Marburg virus; settings: HeLa; n = 9; read-out: RDV activity against MARV EC50
[13] = tested on: Dengue 3 virus (VN32); test: microbe, parasite or virus in culture; assay type: cell-based; settings: Dengue 3 virus (VN32) [Huh-7]
[14] = tested on: MARV Ci67; assay type: cell-based, Marburg virus
[15] = tested on: hepatitis E virus (GT3-Kernow C1 p6/Luciferase replicon); test: HEV replicon Gaussia luciferase assay, Huh-7; assay type: cell-based; settings: Hepatitis E GT3 Kernow C1 p6/Luc replicon [Huh-7]
[16] = tested on: Sudan virus (Boneface); test: microbe, parasite or virus in culture; assay type: cell-based
[17] = tested on: rhinoviruses of serotypes A and B; test: CPE assay, H1 HeLa cells (summary over rhinoviruses); assay type: cell-based; settings: Enterovirus, read-out: EC50 range against rhinoviruses of serotypes A and B
[18] = tested on: H1 HeLa cells; test: Compound cytotoxicity by MTS dye reduction; settings: H1 HeLa
[19] = Compound cytotoxicity by MTS dye reduction; settings: human, H1 HeLa cells
[20] = Multiplex cytotoxicity (calcein AM) in HCV replicon assay; settings: human, Huh-7-lunet HCV genotype 2a replicon cells
[21] = tested on: Influenza B (B/Brisbane/60/2008); test: CPE assay, MDCK cells; assay type: cell-based; settings: Influenza B virus; Influenza B (B/Brisbane/60/2008) [MDCK]; read-out: Antiviral activity EC50
[22] = tested on: Ebola virus (Makona); test: microbe, parasite or virus in culture; assay type: cell-based
[23] = tested on: Enterovirus 68D; settings: listed as Enterovirus 68D; different cells and/or assay protocols; read-out: Previously reported activity EC50; cited from earlier work
[24] = tested on: Marburg (Nganda); test: microbe, parasite or virus in culture; assay type: cell-based, Marburg virus
[25] = tested on: HCV GT1b replicon; test: HCV subgenomic replicon Renilla luciferase assay, Huh-7-lunet; assay type: cell-based, hepatitis C virus; settings: Hepatitis C (1b) [Huh-7-lunet]
[26] = Cytotoxicity, CellTiter-Glo, 96 h (229E protocol); settings: human, H1 HeLa cells
[27] = tested on: Sudan virus (Yambio); test: microbe, parasite or virus in culture; assay type: cell-based
[28] = Cytotoxicity in HBV assay; settings: human, HepG2-NTCP cells (clone HY12), HBV-infected
[29] = tested on: Bundibugyo virus; test: microbe, parasite or virus in culture; assay type: cell-based
[30] = Compound cytotoxicity by MTS dye reduction; settings: human, RD cells
[31] = tested on: Dengue 2 virus (New Guinea C); test: NanoLuc reporter virus infection assay, Huh-7; assay type: cell-based; settings: Dengue 2 virus (New Guinea C) [Huh-7]
[32] = tested on: Marburg (Musoke); test: microbe, parasite or virus in culture; assay type: cell-based, Marburg virus
[33] = tested on: Human Coronavirus OC43 (HCoV-OC43); test: HCoV-OC43 anti-nucleoprotein ELISA antiviral assay, Huh-7 cells; assay type: cell-based; settings: OC43 [Huh-7]
[34] = tested on: HCV 1b replicon; settings: Hepatitis C (1b) replicon; read-out: Previously reported activity EC50; cited from earlier work
[35] = tested on: hepatitis B virus (HBV; AD38 strain); test: Anti-HBV assay (HBsAg), HepG2-NTCP cells; assay type: cell-based; settings: HepG2 or PHH cells
[36] = tested on: Marburg (Angola); test: microbe, parasite or virus in culture; assay type: cell-based, Marburg virus
[37] = n = 1, read-out: Antiviral activity EC50
[38] = Sudan ebolavirus, HeLa, n = 1, read-out: Antiviral activity EC50
[39] = Filoviridae, HeLa, read-out: Antiviral activity EC50

In the case of `CCC(CC)COC(=O)[C@H](C)N[P@](=O)(OC[C@H]1O[C@@](C#N)(c2ccc3c(N)ncnn23)[C@H](O)[C@@H]1O)Oc1ccccc1` [RDV, Remdesivir], the “Selectivity index (SI) = CC50/EC50” value [1] is reported as 98, the EC50 ([1]; Japanese encephalitis virus, n = 1, read-out: Antiviral activity EC50) is reported as 340 nM and the CC50 at 72 h [2] is reported as 18900 ± 1800 nM. It also gave a CC50 [3] greater than 100000 nM, a CC50 [4] greater than 100000 nM and an EC50 [5] greater than 1000 nM. The EC50 ([6]; Enterovirus, read-out: Antiviral activity EC50) was 385 ± 318 nM, the “Selectivity index (SI) = CC50/EC50” value [6] was greater than 26 and the EC50 [7] was 120 to 240 nM. For the same compound, the EC50 [8] was greater than 50000 nM, the EC50 [9] was 24 to 68 nM and the “Selectivity index (SI) = CC50/EC50” value [10] was 90. The EC50 [10, 37] was 370 nM, the “Selectivity index (SI) = CC50/EC50” value [11] was 186 and the EC50 ([11]; Yellow fever virus, Huh-7, read-out: Antiviral activity EC50) was 180 ± 30 nM. For the same compound, the EC50 [12] was 109 nM, the “Selectivity index (SI) = CC50/EC50” value [13] was 278 and the EC50 [13, 37] was 120 nM. The “maximum fold reduction of RDV EC50 in the presence of favipiravir” value [14] was “≥ tenfold”, the “Selectivity index (SI)” value [15] was “Low (When minimal RDV antiviral activity is observed for a particular virus, low SI is indicated)” and the EC50 ([15]; Hepatitis E virus, read-out: Antiviral activity EC50) was greater than 2070 nM. For the same compound, the “Selectivity index (SI) = CC50/EC50” value [16] was greater than 21, the EC50 [16, 38] was 120 nM and the EC50 [17] was 385 to 750 nM. It also gave a CC50 ([18]; listed as Rhinovirus 14) greater than 10000 nM, a CC50 ([18]; listed as Rhinovirus 16) greater than 10000 nM and a CC50 [19] greater than 10000 nM. For the same compound, the CC50 [20] was 17000 ± 3000 nM, the EC50 [21] was greater than 50000 nM and the “Selectivity index (SI) = CC50/EC50” value [22] was greater than 32. For the same compound, the EC50 ([22]; Zaire ebolavirus, HeLa, read-out: Antiviral activity EC50) was 78 ± 4 nM, the EC50 [23] was 100 to 1000 nM and the “Selectivity index (SI) = CC50/EC50” value [24] was greater than 104. The EC50 [24, 39] was 24 ± 4 nM, the “Selectivity index (SI) = CC50/EC50” value [25] was greater than 225 and the EC50 ([25]; Hepatitis C virus, GT1B, read-out: Antiviral activity EC50) was 89 ± 47 nM. For the same compound, the CC50 at 96 h [26] was greater than 50000 nM, the “Selectivity index (SI) = CC50/EC50” value [27] was greater than 19 and the EC50 [27, 38] was 130 nM. The CC50 at 5 days [28] was 7400 nM, the “Selectivity index (SI) = CC50/EC50” value [29] was greater than 53 and the EC50 ([29]; Bundibugyo virus, HeLa, read-out: Antiviral activity EC50) was 190 ± 20 nM. For the same compound, the CC50 ([30]; listed as Enterovirus 68D) was 2820 nM, the CC50 ([30]; listed as Enterovirus 71) was 3310 nM and the “Selectivity index (SI) = CC50/EC50” value [31] was 145. For the same compound, the EC50 [31, 37] was 230 nM, the “Selectivity index (SI) = CC50/EC50” value [32] was greater than 63 and the EC50 [32, 39] was 40 ± 4 nM. The EC50 ([33]; Betacoronavirus 1) was 67 ± 5 nM, the “Selectivity index (SI) = CC50/EC50” value [33] was 282 and the EC50 [34] was 57 nM. For the same compound, the “selectivity index of RDV against HBV” value [35] was roughly 1, the “Selectivity index (SI) = CC50/EC50” value [36] was greater than 56 and the EC50 [36, 39] was 45 ± 30 nM.

From publication PMC9950143 (Scientific Reports, 2023)
